From patent US20110319484A1, “NEUROPROTECTIVE COMPOUNDS” (Parque Tecnologico de Ciencias de la Salud, priority 2009, published 2011)

Key:
cerebral cortex of mice = test: Neuroprotection in the cerebral cortex (lateral entorhinal and amygdaloid nuclei) of mice after kainate; type: in vivo, mice (FVB/NHan); details: KA 25 mg/kg i.p., NST0005 50 mg/kg i.p. daily
Experimental: All the animals included during the experimental process were 12-week old males of the FVB/NHan strain. The experiments were carried out strictly following the Guidance on the Operation of Animals (Scientific Procedures, Act. 1986). The animals had their respective quarantine period and were treated with maximum precaution to minimize possible contaminations for inoculations and handling.
Sixteen animals were used in this assay and the treatments were all carried out by intraperitoneal (i.p.) route with a volume of 100 μl, according to the following regimens: • i) PBS+PBS+PBS regimen: 4 animals were initially treated with PBS with a daily dose for 2 days, on the second day the animals were inoculated with a new dose of PBS and for the next 7 days with a daily dose of PBS. • ii) PBS+KA+PBS regimen: 6 animals were initially treated with PBS with a daily dose for 2 days, on the second day the animals were inoculated with a dose of kainate at 25 mg/kg and for the next 7 days with a daily dose of PBS. • iii) NST0005+KA+NST0005 regimen: 6 animals were initially treated with NST0005 with a daily dose of 50 mg/kg for 2 days, on the second day the animals were inoculated with a dose of kainate at 25 mg/kg and for the next 7 days with a daily dose of NST0005 at 50 mg/kg.
Once the treatment period of 7 days ended, the animals were sacrificed and the brains were dissected. […]

[1] = test system: human neuroblastoma SK-N-MC cells; test: Protection against neuronal death induced by endoplasmic reticulum stress (tunicamycin), WST-1 test; type: cell-based; details: tunicamycin 20 μg/ml, 22 h, at 20 μg/ml, protection at 4, 10, 20 and 40 μg/ml
Experimental: (§1) To that end, an assay was performed on human neuroblastoma SK-N-MC cells in culture from the ATCC (HTB-10); in all cases strict rules of sterility were followed and the manipulation was performed in class II biological safety cabinets following European standard EN 12469. The cells were maintained in MEM culture medium supplemented with 1 mM sodium pyruvate, 2 mM L-glutamine, 0.1 mM non-essential amino acids, 0.05 mg/ml gentamicin and 10% fetal bovine serum.
The inhibition caused by the compound (1S,3R,7S,8S,8aR)-1,2,3,7,8,8a-hexahydro-3,7-dimethyl-8-[2-[(2R,4R)-tetrahydro-4-hydroxy-6-oxo-2H-pyran-2-yl]ethyl-1-naphthalenyl 2,2-dimethylpropanoate (NST0005) of cell death caused by treatment with tunicamycin (Tm), which generates endoplasmic reticulum stress by inhibition of N-glycosylation of proteins, which triggers cell death, was analyzed. […]
(§2) The cells were incubated (at 37° C. and 5% CO2) with these treatments for 22 h, after which time the WST-1 reagent (Roche) was added. The WST-1 Test, as has been previously mentioned, is based on the measurement of the metabolic activity; the metabolically active (live) cells reduce tetrazolium salt to formazan by means of the succinate-tetrazolium reductase system (of the mitochondrial respiratory chain) and the formazan which is formed can be detected colorimetrically since it has an absorbance of 440 nm. […]

[2] = test system: human neuroblastoma SK-N-MC cells; test: Protection against neuronal death induced by apoptosis (camptothecin), WST-1 test; type: cell-based; details: camptothecin 20 nM, 22 h, at 10 μg/ml, protection at 4, 10 and 40 μg/ml
Experimental: as §1
The inhibition caused by the compound (1S,3R,7S,8S,8aR)-1,2,3,7,8,8a-hexahydro-3,7-dimethyl-8-[2-[(2R,4R)-tetrahydro-4-hydroxy-6-oxo-2H-pyran-2-yl]ethyl-1-naphthalenyl 2-methylpropanoate (NST0004) of cell death caused by treatment with camptothecin (Campt), which inhibits the topoisomerase I enzyme by preventing duplication of the DNA, which triggers apoptic cell death, was analyzed. […]
as §2, with “added. […]” for “added.”, “The” for “The WST-1 Test, as has been previously mentioned, is based on the measurement of the metabolic activity; the”, “nm. The reading was taken in a plate reader at 440 nm 2 hours after adding the reagent.” for “nm.”

SMILES | neuritic dystrophy in the cerebral cortex (MAP2) (cerebral cortex of mice) | reactive astrogliosis in the cerebral cortex (GFAP) (cerebral cortex of mice) | maximum reduction of the percentage of cell death relating to death caused by Tunicamycin [1] [%] | maximum reduction of the percentage of cell death relating to death caused by Camptothecin [2] [%]
C[C@H]1C=C2C=C[C@H](C)[C@H](CC[C@@H]3C[C@@H](O)CC(=O)O3)[C@H]2[C@@H](OC(=O)C(C)(C)C)C1 [NST0005] | significantly reduces neuronal damage by neuritic dystrophy | significantly prevents reactive astrogliosis | 38 | 
CC(C)C(=O)O[C@H]1C[C@@H](C)C=C2C=C[C@H](C)[C@H](CC[C@@H]3C[C@@H](O)CC(=O)O3)[C@H]21 [NST0004] |  |  |  | 43
